# Results reported in US10829473B2, “Modulators of the cystic fibrosis transmembrane conductance regulator protein and methods of use” (AbbVie Overseas S.Á.R.L., priority 2017, dated 2020).
# Where two headings read alike, the source gives them in different places. Marks after values point to notes of the source that are not given here.
# Target: T1, F508delCFTR (Homo sapiens, UniProt P13569, DEL508-508)
# T1 construct: expressed in transfected cells; host or cells: CFBE41o- human lung derived epithelial cells (CFBE41o-F508delCFTR-HRP), doxycycline-inducible
# T1 sequence (P13569 with tags, fused parts or gaps DEL508-508): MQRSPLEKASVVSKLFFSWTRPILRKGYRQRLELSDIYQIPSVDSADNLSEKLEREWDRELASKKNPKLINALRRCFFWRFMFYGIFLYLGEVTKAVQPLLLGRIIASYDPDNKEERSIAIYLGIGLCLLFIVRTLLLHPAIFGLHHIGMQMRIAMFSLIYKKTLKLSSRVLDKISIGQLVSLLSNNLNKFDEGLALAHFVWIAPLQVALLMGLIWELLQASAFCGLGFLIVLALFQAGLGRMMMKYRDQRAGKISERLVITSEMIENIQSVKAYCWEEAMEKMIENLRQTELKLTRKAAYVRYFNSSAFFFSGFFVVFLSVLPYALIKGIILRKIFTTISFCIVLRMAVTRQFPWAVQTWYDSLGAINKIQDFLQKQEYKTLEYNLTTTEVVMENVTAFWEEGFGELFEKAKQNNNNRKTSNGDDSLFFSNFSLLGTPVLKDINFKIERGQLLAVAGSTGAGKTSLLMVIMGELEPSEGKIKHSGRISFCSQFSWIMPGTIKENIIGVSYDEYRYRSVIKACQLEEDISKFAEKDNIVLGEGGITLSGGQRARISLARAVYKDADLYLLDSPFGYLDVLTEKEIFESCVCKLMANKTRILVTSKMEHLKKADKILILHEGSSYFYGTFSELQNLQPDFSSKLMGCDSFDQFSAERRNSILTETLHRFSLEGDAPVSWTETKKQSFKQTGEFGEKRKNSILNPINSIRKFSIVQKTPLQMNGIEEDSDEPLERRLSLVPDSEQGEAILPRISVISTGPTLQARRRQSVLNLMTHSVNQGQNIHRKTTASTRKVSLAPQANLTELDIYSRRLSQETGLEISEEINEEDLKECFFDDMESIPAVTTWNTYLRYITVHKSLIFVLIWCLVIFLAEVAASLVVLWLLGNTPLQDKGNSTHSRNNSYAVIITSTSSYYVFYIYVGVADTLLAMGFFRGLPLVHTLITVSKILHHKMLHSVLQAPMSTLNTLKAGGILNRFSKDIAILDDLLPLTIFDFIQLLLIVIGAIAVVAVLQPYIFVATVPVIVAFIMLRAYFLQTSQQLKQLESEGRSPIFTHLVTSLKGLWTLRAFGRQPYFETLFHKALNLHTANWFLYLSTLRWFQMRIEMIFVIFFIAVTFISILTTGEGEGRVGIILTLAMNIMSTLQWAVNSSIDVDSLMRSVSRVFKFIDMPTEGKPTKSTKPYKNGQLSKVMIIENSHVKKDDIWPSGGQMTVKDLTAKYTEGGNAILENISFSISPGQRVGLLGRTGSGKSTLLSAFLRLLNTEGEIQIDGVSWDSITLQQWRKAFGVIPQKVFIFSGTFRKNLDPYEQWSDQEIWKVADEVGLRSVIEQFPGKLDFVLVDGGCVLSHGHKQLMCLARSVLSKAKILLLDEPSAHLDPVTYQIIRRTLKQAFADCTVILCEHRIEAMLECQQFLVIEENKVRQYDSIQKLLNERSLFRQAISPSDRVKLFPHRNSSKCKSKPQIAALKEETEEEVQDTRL
# Experiment: Cell Surface Expression-Horse Radish Peroxidase (CSE-HRP) Assay;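 as to EC50 (with co-corrector): co-corrector chromenyl benzoic acid corrector at 2 or 3 µM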;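 as to Maximum % activity (without co-corrector): % of on-plate positive control chromenyl benzoic acid corrector at 2 or 3 µM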
# Assay type: cell-based
# Conditions: for Maximum % activity (with co-corrector) / Emax: maximum at any tested concentration; for Emax: read-out: Maximum % activity (without co-corrector)
# Outline: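 Corrector compounds were given as 8-point 3-fold series from 20 or 30 μM, with or without a 2 μM co-corrector, for 18-24 h at 33 °C. Surface HRP was read by luminol luminescence as % of positive control; variable-Hill-slope sigmoidal fitting gave EC50 from triplicate plates.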
# [1] = test compound alone, without co-corrector, read-out: EC50 (without co-corrector)
# [2] = with co-corrector, read-out: EC50 (with co-corrector)
# [3] = test compound with co-corrector
# [4] = test compound with co-corrector, read-out: EC50 (with co-corrector)
# [5] = test compound without co-corrector
# [6] = test compound without co-corrector, read-out: EC50 (without co-corrector)
SMILES,EC50 [1] [µM],Maximum % activity (with co-corrector) (with co-corrector),EC50 [2] [µM],Emax (without co-corrector) [%],Maximum % activity (with co-corrector) [3],EC50 [4] [µM],Emax [5] [%],EC50 [6] [µM],EC50 (with co-corrector) [3],EC50 (without co-corrector) [5]
"COc1ccc(C(C)(C)C)cc1C1(C(=O)NS(=O)(=O)c2cccc3nc(C)ccc23)CC1 [Example I-70, 1-(5-tert-butyl-2-methoxyphenyl)-N-(2-methylquinoline-5-sulfonyl)cyclopropane-1-carboxamide]",< 3,+++ (≥350),< 3,> 150,,,,,,
COc1ncc(C2CCC2)cc1C1(C(=O)NS(=O)(=O)c2cccc3[nH]ncc23)CC1 [II-15],3 to 10,+++ (≥350),< 3,> 150,,,,,,
"CC(C)Oc1ncc(N2CCCC2)cc1C1(C(=O)NS(=O)(=O)c2cccc3ncccc23)CC1 [Example GI-62, 1-{2-[(propan-2-yl)oxy]-5-(pyrrolidin-1-yl)pyridin-3-yl}-N-(quinoline-5-sulfonyl)cyclopropane-1-carboxamide]",,,,,+++ (≥350),< 3,> 150,< 3,,
COc1cccc(C2(C(=O)NS(=O)(=O)c3cccc4ncccc34)CC2)c1 [II-56],3 to 10,+++ (≥350),3 to 10,> 150,,,,,,
"COc1ccc(C2CCC2)cc1C1(C(=O)NS(=O)(=O)c2cccc3ccc(C)nc23)CC1 [Example I-62, 1-(5-cyclobutyl-2-methoxyphenyl)-N-(2-methylquinoline-8-sulfonyl)cyclopropane-1-carboxamide]",< 3,+++ (≥350),< 3,> 150,,,,,,
"Cc1ccc(OC(C)C)c(C2(C(=O)NS(=O)(=O)c3cccc4nc(C)ccc34)CC2)c1 [Example I-78, 1-{5-methyl-2-[(propan-2-yl)oxy]phenyl}-N-(2-methylquinoline-5-sulfonyl)cyclopropane-1-carboxamide]",< 3,+++ (≥350),< 3,> 150,,,,,,
"CC(C)COc1ccc(OC(C)C)c(C2(C(=O)NS(=O)(=O)c3cccc4ncccc34)CC2)n1 [Example GI-86, 1-{6-(2-methylpropoxy)-3-[(propan-2-yl)oxy]pyridin-2-yl}-N-(quinoline-5-sulfonyl)cyclopropane-1-carboxamide]",,,,,+++ (≥350),< 3,> 150,< 3,,
"COc1ccc(C2CC2)c(C)c1C1(C(=O)NS(=O)(=O)c2cccc3ncccc23)CC1 [Example I-48, 1-(3-cyclopropyl-6-methoxy-2-methylphenyl)-N-(quinoline-5-sulfonyl)cyclopropane-1-carboxamide]",< 3,+++ (≥350),< 3,> 150,,,,,,
COc1ccc2c(S(=O)(=O)NC(=O)C3(c4cc(C5CC5)cnc4OC(C)C)CC3)cccc2n1 [II-95],< 3,+++ (≥350),< 3,> 150,,,,,,
"COc1ccc(OC)c(C2(C(=O)NS(=O)(=O)c3cccc4ccccc34)CC2)c1 [Example I-28, 1-(2,5-dimethoxyphenyl)-N-(naphthalene-1-sulfonyl)cyclopropane-1-carboxamide]",< 3,+++ (≥350),< 3,> 150,,,,,,
COc1cc(C2CCC2)cc(OC)c1C1(C(=O)NS(=O)(=O)c2cccc3ccn(C)c23)CC1 [II-66],< 3,+++ (≥350),< 3,> 150,,,,,,
"COc1ccc(Br)cc1C1(C(=O)NS(=O)(=O)c2cccc3ncccc23)CC1 [Example I-18, 1-(5-bromo-2-methoxyphenyl)-N-(quinoline-5-sulfonyl)cyclopropane-1-carboxamide]",< 3,+++ (≥350),< 3,> 150,,,,,,
"COc1cc(F)c(C(C)C)cc1C1(C(=O)NS(=O)(=O)c2cccc3ncccc23)CC1 [Example I-36, 1-[4-fluoro-2-methoxy-5-(propan-2-yl)phenyl]-N-(quinoline-5-sulfonyl)cyclopropane-1-carboxamide]",< 3,+++ (≥350),< 3,> 150,,,,,,
COc1cc(C2CCC2)cc(OC)c1C1(C(=O)NS(=O)(=O)c2cccc3nc(N)ccc23)CC1 [II-70],< 3,+++ (≥350),< 3,> 150,,,,,,
Cc1ccc2c(S(=O)(=O)NC(=O)C3(c4cc(Cl)ccc4OC(F)F)CC3)cccc2n1 [II-102],3 to 10,+++ (≥350),< 3,> 150,,,,,,
COc1ccccc1C1(C(=O)NS(=O)(=O)c2cccc3ncccc23)CCC1 [II-6],3 to 10,+++ (≥350),< 3,> 150,,,,,,
COc1ccc(C(C)(C)OC)cc1C1(C(=O)NS(=O)(=O)c2cccc3[nH]ccc23)CC1 [II-88],3 to 10,+++ (≥350),< 3,> 150,,,,,,
COc1ccc(C)c(C)c1C1(C(=O)NS(=O)(=O)c2cccc3[nH]ncc23)CC1 [II-77],< 3,+++ (≥350),< 3,> 150,,,,,,
"COc1ncc(C2CCC2)cc1C1(C(=O)NS(=O)(=O)c2cccc3c2CCCN3)CC1 [Example I-6, 1-(5-cyclobutyl-2-methoxypyridin-3-yl)-N-(1,2,3,4-tetrahydroquinoline-5-sulfonyl)cyclopropane-1-carboxamide]",< 3,+++ (≥350),< 3,> 150,,,,,,
"COc1cnc(OC(C)C)c(C2(C(=O)NS(=O)(=O)c3cccc4[nH]ccc34)CC2)c1 [Example GI-75, N-(1H-indole-4-sulfonyl)-1-{5-methoxy-2-[(propan-2-yl)oxy]pyridin-3-yl}cyclopropane-1-carboxamide]",,,,,+++ (≥350),< 3,> 150,3 to 10,,
COc1ccc(C2CCC2)c(C2(C(=O)NS(=O)(=O)c3cccc4ncccc34)CC2)c1 [II-46],< 3,+++ (≥350),< 3,> 150,,,,,,

# Further lines, results first:
EC50 [1] [µM],Maximum % activity (with co-corrector) (with co-corrector),EC50 [2] [µM],Emax (without co-corrector) [%],Maximum % activity (with co-corrector) [3],EC50 [4] [µM],Emax [5] [%],EC50 [6] [µM],EC50 (with co-corrector) [3],EC50 (without co-corrector) [5],SMILES
< 3,+++ (≥350),< 3,> 150,,,,,,,"COc1ccc(C23CC(C2)C3)cc1C1(C(=O)NS(=O)(=O)c2cccc3c2CCCN3)CC1 [Example III-101, 1-[5-(bicyclo[1.1.1]pentan-1-yl)-2-methoxyphenyl]-N-(1,2,3,4-tetrahydroquinoline-5-sulfonyl)cyclopropane-1-carboxamide]"
> 10,++ (≥150 and <350),> 10,< 50,,,,,,,"O=C(NS(=O)(=O)Cc1ccccc1)C1(c2ccccc2F)CC1 [Example III-35, 1-(2-fluorophenyl)-N-(phenylmethanesulfonyl)cyclopropane-1-carboxamide]"
,,,,+ (<150),> 10,< 50,> 10,,,CN1CCN(c2ncc(C3CCC3)cc2C2(C(=O)NS(=O)(=O)c3cccc4ncccc34)CC2)CC1 [GIII-31]
,,,,++ (≥150 and <350),,50 to 150,,++^a,++^a,COc1ccc(C2(C(=O)NS(=O)(=O)c3cccc4ncccc34)CC2)c(C)n1 [GIII-8]
,,,,+++ (≥350),3 to 10,> 150,3 to 10,,,"CCc1cnc(N2CCC(OC(C)C)CC2)c(C2(C(=O)NS(=O)(=O)c3cccc4nc(C)ccc34)CC2)c1 [GII-55, 1-(5-ethyl-2-{4-[(propan-2-yl)oxy]piperidin-1-yl}pyridin-3-yl)-N-(2-methylquinoline-5-sulfonyl)cyclopropane-1-carboxamide]"
,,,,++ (≥150 and <350),3 to 10,50 to 150,3 to 10,,,"COCCOc1ncc(C)cc1C1(C(=O)NS(=O)(=O)c2cccc3ncccc23)CC1 [GII-52, 1-[2-(2-methoxyethoxy)-5-methylpyridin-3-yl]-N-(quinoline-5-sulfonyl)cyclopropane-1-carboxamide]"
,,,,++ (≥150 and <350),3 to 10,> 150,3 to 10,,,"CCc1cnc(N2CCCC2)c(C2(C(=O)NS(=O)(=O)c3cccc4c3CCCN4)CC2)c1 [GII-35, 1-[5-ethyl-2-(pyrrolidin-1-yl)pyridin-3-yl]-N-(1,2,3,4-tetrahydroquinoline-5-sulfonyl)cyclopropane-1-carboxamide]"
> 10,++ (≥150 and <350),3 to 10,< 50,,,,,,,"O=C(NS(=O)(=O)c1ccc(Br)s1)C1(c2ccc(Cl)cc2Cl)CC1 [Example III-63, N-(5-bromothiophene-2-sulfonyl)-1-(2,4-dichlorophenyl)cyclopropane-1-carboxamide]"
3 to 10,+++ (≥350),3 to 10,50 to 150,,,,,,,"O=C(NS(=O)(=O)c1ccccc1)C1(c2cccc(Br)c2)CC1 [Example III-71, N-(benzenesulfonyl)-1-(3-bromophenyl)cyclopropane-1-carboxamide]"
,,,,++ (≥150 and <350),,50 to 150,,++^a,++^a,COCCOc1cnc(OC)cc1C1(C(=O)NS(=O)(=O)c2cccc3ncccc23)CC1 [GIII-11]
